# Tested on: green peach aphid (Myzus persicae)
# Assay: Myzus test (spray treatment) on Chinese cabbage leaf disks
# Assay type: in vivo
# Details: foliar, 144 h, read-out: Mortality in % After 6 Days
# Experimental: A suitable preparation of active ingredient was prepared by mixing one part by weight of active ingredient with the stated amounts of solvent and emulsifier and diluting the concentrate with emulsifier-containing water to the desired concentration as described below. A suitable suspension of biological agent was prepared by dissolving the cells, spores or viruses in emulsifier-containing water at the desired concentration.
# Chinese cabbage (Brassica pekinensis) leaf disks infested by all stages of the green peach aphid (Myzus persicae) were sprayed with an active ingredient and/or biological agent preparation in the desired concentration.
# After the desired time, the effect in % was ascertained. Here, 100% means that all of the aphids had been killed; 0% means that no aphids had been killed. The mortality figures determined are used for calculation according to the Colby formula (cf. Colby, S. R., “Calculating Synergistic and Antagonistic Responses of Herbicide Combinations”, Weeds 1967, 15, 20-22).
smiles,measurement,setting,value
"O=C(NCCc1ncc(C(F)(F)F)cc1Cl)c1ccccc1C(F)(F)F [Fluopyram, fluopyram]",mortality at 500 g/ha,500 g ai/ha,0%
same,mortality at 1000 g/ha,1000 g ai/ha,0%

# Source: patent US20180064110A1, “COMBINATIONS OF FUNGICIDALLY ACTIVE YEAST AND FUNGICIDES” (Bayer CropScience AG, priority 2009, published 2018)
